Literature values in patent publication US20230405042A1, “Compositions to Modify Intestinal Nutrient Absorption, Methods of Making and Uses Thereof” (McMaster University, priority 2022, published 2023).

Test system: rodents
Conditions: oral delivery or injection in rodents

SMILES | Liver glycogen formation
C[C@@H](O)C(=O)O [D-lactate] | leads to glycogen deposition in the liver
C[C@H](O)C(=O)O [L-lactate] | hardly forms any liver glycogen
